ChEMBL document CHEMBL1135817, “New templates for syntheses of ring-fused, C(10) beta-turn peptidomimetics leading to the first reported small-molecule mimic of neurotrophin-3” (2002)

Experiments:
[1] = target: NT-3 growth factor receptor (Mus musculus) (UniProt Q6VNS1); assay: Survival of TrkC receptor transfected NIH3T3 cells at 2 uM with 100 pM NT-3; format: functional, cell-based
[2] = target: NT-3 growth factor receptor (Mus musculus) (UniProt Q6VNS1); assay: Survival of TrkC receptor transfected NIH3T3 cells at o.4 uM with 100 pM NT-3; format: functional, cell-based
[3] = target: NT-3 growth factor receptor (Mus musculus) (UniProt Q6VNS1); assay: Survival of TrkC receptor transfected NIH3T3 cells at 50 uM with 100 pM NT-3; format: functional, cell-based
[4] = target: NT-3 growth factor receptor (Mus musculus) (UniProt Q6VNS1); assay: Survival of TrkC receptor transfected NIH3T3 cells at 10 uM with 100 pM NT-3; format: functional, cell-based
[5] = target: NT-3 growth factor receptor (Mus musculus) (UniProt Q6VNS1); assay: Survival of TrkC receptor transfected NIH3T3 cells without NT-3 (negative control); format: functional, cell-based
[6] = target: NT-3 growth factor receptor (Mus musculus) (UniProt Q6VNS1); assay: Binding of FITCanti-TrkC-Ab to TrkC receptor transfected NIH3T3 cells (positive control); format: cell-based
[7] = target: NT-3 growth factor receptor (Mus musculus) (UniProt Q6VNS1); assay: Survival of TrkC receptor transfected NIH3T3 cells at 50 uM without NT-3; format: functional, cell-based
[8] = target: NT-3 growth factor receptor (Mus musculus) (UniProt Q6VNS1); assay: Survival of TrkC receptor transfected NIH3T3 cells at 2 uM without NT-3; format: functional, cell-based
[9] = target: NT-3 growth factor receptor (Mus musculus) (UniProt Q6VNS1); assay: Survival of TrkC receptor transfected NIH3T3 cells with 2000 pM NT-3 (positive control); format: functional, cell-based
[10] = target: NT-3 growth factor receptor (Mus musculus) (UniProt Q6VNS1); assay: Survival of TrkC receptor transfected NIH3T3 cells at 10 uM without NT-3; format: functional, cell-based
[11] = target: NT-3 growth factor receptor (Mus musculus) (UniProt Q6VNS1); assay: Survival of TrkC receptor transfected NIH3T3 cells at o.4 uM without NT-3; format: functional, cell-based
[12] = target: High affinity nerve growth factor receptor (Homo sapiens) (UniProt P04629); assay: Binding of FITCanti-TrkA-Ab to human TrkA receptor transfected NIH3T3 cells (positive control); format: cell-based
High affinity nerve growth factor receptor (Homo sapiens), sequence (P04629 33-796 limits assumed): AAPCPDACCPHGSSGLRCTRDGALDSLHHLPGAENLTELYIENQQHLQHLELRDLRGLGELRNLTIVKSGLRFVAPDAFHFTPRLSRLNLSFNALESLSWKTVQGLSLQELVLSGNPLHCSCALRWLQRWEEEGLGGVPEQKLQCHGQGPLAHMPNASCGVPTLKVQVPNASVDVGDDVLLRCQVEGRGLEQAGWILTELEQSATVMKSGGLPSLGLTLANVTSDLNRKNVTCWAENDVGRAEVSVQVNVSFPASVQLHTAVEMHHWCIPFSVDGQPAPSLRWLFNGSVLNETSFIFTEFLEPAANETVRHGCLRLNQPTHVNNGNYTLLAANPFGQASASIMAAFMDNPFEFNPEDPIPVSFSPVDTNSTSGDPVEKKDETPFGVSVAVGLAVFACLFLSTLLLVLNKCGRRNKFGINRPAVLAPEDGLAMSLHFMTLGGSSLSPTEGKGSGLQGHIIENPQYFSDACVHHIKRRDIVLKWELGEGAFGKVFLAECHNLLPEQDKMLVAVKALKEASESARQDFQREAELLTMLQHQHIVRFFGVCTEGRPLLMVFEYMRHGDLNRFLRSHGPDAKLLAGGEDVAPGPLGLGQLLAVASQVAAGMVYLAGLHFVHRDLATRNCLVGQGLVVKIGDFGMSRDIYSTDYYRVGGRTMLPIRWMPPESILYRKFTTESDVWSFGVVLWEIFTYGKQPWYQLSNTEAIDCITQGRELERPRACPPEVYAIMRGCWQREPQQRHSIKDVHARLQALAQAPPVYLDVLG

[13] = target: NT-3 growth factor receptor (Mus musculus) (UniProt Q6VNS1); assay: Survival of TrkC receptor transfected NIH3T3 cells with suboptimal NT-3 (100 pM); format: functional, cell-based
NIH3T3 [14] = assay: Binding of irrelevant FITC-Ab to NIH3T3 cells (negative control); format: functional, Mus musculus
[15] = target: High affinity nerve growth factor receptor (Homo sapiens) (UniProt P04629); assay: Binding affinity for TrkA receptor transfected NIH3T3 cells at 20 uM with 2 nM NGF; format: cell-based
[16] = target: High affinity nerve growth factor receptor (Homo sapiens) (UniProt P04629); assay: Binding affinity for TrkA receptor transfected NIH3T3 cells at 20 uM without NGF; format: cell-based
NIH3T3 [17] = assay: Binding affinity for NIH3T3 cells at 20 uM (negative control); format: functional, Mus musculus
[18] = target: NT-3 growth factor receptor (Mus musculus) (UniProt Q6VNS1); assay: Binding affinity for TrkC receptor transfected cells at 20 uM with 20 nM anti-TrkC-Ab
[19] = target: NT-3 growth factor receptor (Mus musculus) (UniProt Q6VNS1); assay: Binding affinity for TrkC receptor transfected cells at 20 uM without NT-3
[20] = target: NT-3 growth factor receptor (Mus musculus) (UniProt Q6VNS1); assay: Binding affinity for TrkC receptor transfected cells at 20 uM with 2 nM NT-3

NT-3 growth factor receptor (Mus musculus), sequence (Q6VNS1 whole entry): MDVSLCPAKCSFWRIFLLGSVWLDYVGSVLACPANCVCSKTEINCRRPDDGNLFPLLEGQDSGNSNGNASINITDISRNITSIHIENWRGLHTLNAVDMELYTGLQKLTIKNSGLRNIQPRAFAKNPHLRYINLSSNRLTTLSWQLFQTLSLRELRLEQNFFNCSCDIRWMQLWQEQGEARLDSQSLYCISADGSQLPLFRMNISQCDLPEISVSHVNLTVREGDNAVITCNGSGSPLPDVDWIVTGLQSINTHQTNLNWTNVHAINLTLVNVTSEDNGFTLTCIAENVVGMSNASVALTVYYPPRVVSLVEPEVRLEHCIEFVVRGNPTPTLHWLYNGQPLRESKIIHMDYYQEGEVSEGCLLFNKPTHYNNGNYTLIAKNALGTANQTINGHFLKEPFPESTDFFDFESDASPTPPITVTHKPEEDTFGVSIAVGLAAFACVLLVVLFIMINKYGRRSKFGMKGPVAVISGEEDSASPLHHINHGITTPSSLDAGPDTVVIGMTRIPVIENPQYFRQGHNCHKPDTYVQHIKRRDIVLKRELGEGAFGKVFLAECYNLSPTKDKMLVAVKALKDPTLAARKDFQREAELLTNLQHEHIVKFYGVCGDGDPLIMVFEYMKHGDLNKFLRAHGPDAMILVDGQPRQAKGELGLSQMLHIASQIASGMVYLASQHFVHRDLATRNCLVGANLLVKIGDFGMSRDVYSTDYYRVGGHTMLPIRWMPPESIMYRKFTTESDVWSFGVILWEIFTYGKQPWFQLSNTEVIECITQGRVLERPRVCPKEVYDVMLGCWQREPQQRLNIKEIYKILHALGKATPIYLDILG

| Max binding [15] [%] | Max binding [16] [%] | Max binding [18] [%] | Max binding [19] [%] | Max binding [20] [%] | SMILES | Survival [1] [%] | Survival [2] [%] | Survival [3] [%] | Survival [4] [%] | Survival [5] [%] | Max binding [6] [%] | Survival [7] [%] | Survival [8] [%] | Survival [9] [%] | Survival [10] [%] | Survival [11] [%] | Max binding [12] [%] | Survival [13] [%] | Max binding (NIH3T3 [14]) [%] | Max binding (NIH3T3 [17]) [%] |
| --- | --- | --- | --- | --- | --- | --- | --- | --- | --- | --- | --- | --- | --- | --- | --- | --- | --- | --- | --- | --- |
| – | – | – | – | – | NCCCC[C@@H]1NC(=O)c2cc([N+](=O)[O-])ccc2NCc2ccc(C(N)=O)cc2NC(=O)[C@H](CO)NC1=O | 33 | 32 | 36 | 38 | 0 | 22 | 0.2 | 0.1 | 100 | 0.4 | 0.2 | 71 | 26 | 14 | – |
| 9 | 22 | 40 | 11 | 42 | NCCCC[C@@H]1NC(=O)c2cc(NC(=O)CC/N=C(S)/N=C3/C=CC(=C4c5ccc(O)cc5Oc5cc(O)ccc54)C(C(=O)O)=C3)ccc2NCc2ccc(C(N)=O)cc2NC(=O)[C@H](CO)NC1=O | – | – | – | – | – | – | – | – | – | – | – | – | – | – | 14 |
